The source of these data is EP2732821A1, “Amphoteric polyamidoamines in the treatment of malaria” (Universita' Degli Studi Di Milano, priority 2012, dated 2014).

Molecules are shown by their SMILES. Like-named read-outs stand apart in the source and are kept apart here.

Experiment [1] concerns P. yoelii XL-infected mice. The following applies: for % parasitemia: day 4. On the procedure: Briefly, mice were inoculated 2 × 10^6 red blood cells from P. yoelii XL-infected mice by intraperitoneal (ip) injection. […] Tested compounds were prepared at appropriate doses in PBS. The control groups received PBS (n=3). The parasitemia was monitored daily by microscopic examination of Wright's-stained thin-blood smears. Activity was calculated by microscopic counting of blood smears from day 4.

In experiment [2] the test system is P. falciparum 3D7 cultures. The experiment in a line: microbe, parasite or virus in culture. Particulars: Plasmodium falciparum, 3D7, 48 h. The protocol: Parasitemia of P. falciparum 3D7 cultures was adjusted to 1.5% with more than 90% of parasites at ring stage after sorbitol synchronization. 98 µL of this Plasmodium culture was plated in 96-well plates and incubated in the presence of phosphate-buffered saline (PBS) solutions of the free drugs or of polymer/drug conjugates (ISA 23-PQ obtained in Example3; AGMA1-PQ obtained in Example 4,; ISA 23-CQ obtained in Example 3; AGMA1-CQ obtained in Example 4) for 48 h at 37°C under a gas mixture of 92% N2, 5% CO2, and 3% O2. Parasitemia was determined by microscopic counting of blood smears, or by FACS. Table 2. Effect of free primaquine, ISA23-PQ and AGMA1-PQ on the growth of P. falciparum. The polymers were added to P. falciparum cultures at the ring stage, and incubated for 48 h before determining parasitemia.

The next experiment deals with P. yoelii-infected mice. Particulars: oral, 100 mg kg^-1; cited from earlier work.
Another experiment deals with P. berghei-infected mice. Particulars: single intravenous dose of 1 mg kg^-1, free drug; cited from earlier work.

As to `CCN(CC)CCCC(C)Nc1ccnc2cc(Cl)ccc12` (centres unmarked) [CQ soluble, chloroquine], the “% parasitemia” value in experiment [1] (chloroquine 1 mg/kg per day ip for 4 days) came out at 37.7%. In addition, in experiment [1] (chloroquine 2.5 mg/kg), the “% parasitemia” value is given as 20.1%. The “elimination of parasitemia and cure of the animals” value in experiment [1] (intraperitoneal 4 × 1 mg kg^-1 doses of CQ, free CQ at the same or even a larger amount) is “unable to eliminate parasitemia or cure the animals”. In experiment [2], this compound gave an inhibition at 0.0026 µg/mL of 8.9%, an inhibition at 0.00515 µg/mL of 22.6%, an inhibition at 0.0103 µg/mL of 72.9% and an inhibition at 0.0206 µg/mL of 82.1%. Also, in experiment [2], the inhibition at 0.0414 µg/mL was found to be 85.9% and the inhibition at 0.0824 µg/mL is 86.4%.

In experiment [2], `COc1cc(NC(C)CCCN)c2ncccc2c1` (centres unmarked) [PQ soluble, primaquine] displayed an inhibition at 0.44 µg/mL of 6.9%, an inhibition at 0.88 µg/mL of 40.9%, an inhibition at 1.76 µg/mL of 53.9% and an inhibition at 3.52 µg/mL of 80.3%. For the same compound, in experiment [2], the inhibition at 7.04 µg/mL stood at 86.6% and the inhibition at 14.1 µg/mL came out at 88.2%.

As to `COc1cc(/C=C/C(=O)CC(=O)/C=C/c2ccc(O)c(OC)c2)ccc1O` [curcumin], the animals cured entry with P. yoelii-infected mice is “one third”.

Turning to `CCCCN(CCCC)CCC(O)c1cc2c(Cl)cc(Cl)cc2c2cc(C(F)(F)F)ccc12` (centres unmarked) [halofantrine], the “arrest of infection and survival” value with P. berghei-infected mice is “unable to arrest the infection or to prolong the survival of the animals”.
